Results: PMC7219108, “Pisum sativum Defensin 1 Eradicates Mouse Metastatic Lung Nodules from B16F10 Melanoma Cells” (International Journal of Molecular Sciences, 2020)
Each block holds one molecule with its values, some of them ahead of it.

Columns and labels:
[1] = test system: B16F10 cells; assay: Glucosylceramide depletion study on Psd1 entrance in B16F10 cells; format: cell-based, murine; settings: 20 µM PPMP, 1 h, without Psd1
Experimental: Figure 4 GlcCer reduction inhibits the entrance of FITC-Psd1 into B16F10 cancer cells. B16F10 cells (1.5 × 10^4) were incubated with or without 20 µM PPMP for 1 h followed by treatment with or without 9 µM FITC-Psd1 for 2 h. Fixed cells were stained with Vybrant™ Alexa Fluor™ 594 and DAPI. (a) B16F10 cells without treatments (−PPMP, −Psd1); (b) B16F10 cells treated with Psd1 for 2 h (–PPMP, +Psd1 (2 h)); (c) B16F10 cells treated with PPMP (+PPMP, −Psd1); (d) B16F10 cells treated with PPMP plus Psd1 (+PPMP, +Psd1 (2 h)). Pictures were acquired at 40× magnification. Inset zoom images are at 100× magnification. At least two experiments were performed independently.
B16F10 cells (1.5 × 10^4) in cover glass were previously incubated with 20 µM DL-threo-1-phenyl-2-palmitoylamino-3-morpholino-1-propanol (PPMP, Sigma-Aldrich Brasil, São Paulo, Brazil) inhibitor for 60 min followed by treatment with 9 µM Psd1 for 30 min or 2 h. The cells were fixed on glass slides with 4% paraformaldehyde plus 4% sucrose for 10 min and then stained with a Vybrant Alexa Fluor 594 Lipid Raft Labeling Kit (Thermo Fisher Scientific Inc, Maryland, USA). Briefly, 1.25 µg/mL cholera toxin subunit B (CT-B) and 160× diluted anti-CT-B were incubated with cells for 10 min each at 4 °C. Three PBS wash steps were performed between each stage. […]

[2] = test system: B16F10 cells; assay: SYTOXGreen uptake (membrane permeabilization), B16F10 cells; format: cell-based, murine; settings: 0.0001% H2O2, 30 min
Experimental: Figure 2 Psd1 promotes B16F10 live cell membrane permeabilization as monitored by SYTOX Green fluorescence. (A) Psd1 untreated and hydrogen peroxide-treated B16F10 cells. (B) A total of 1.5 × 10^4 B16F10 cells were incubated with 3 or 50 µM Psd1 for 30 min. (C) 1.5 × 10^4 B16F10 cells were incubated with 50 µM Psd1 for 1 h. All experiments were performed at 37 °C. Nucleus staining is shown in green (SYTOXGreen), and mitochondria are shown in red (MitoTracker Red CMXRos). Images are shown at 20× magnification. […] (E) Psd1 induces apoptosis in B16F10 cells. B16F10 cells were treated with 50 µM Psd1 for 24 h and labeled with propidium iodide, and the DNA content was analyzed by flow cytometry for the sub-G0/G1 profile. At least two independent experiments were performed. TEXT PRINTED IN THE PICTURE: (E) Control: Sub-G1: 4.4% | (E) Psd1: Sub-G1: 60.6% (50μM)
Images were obtained in the X, Y, and Z planes of the image, giving the image a 3-dimensional depth (Z-stack) at 100× magnification with a Zeiss Cell Observer Yokogawa Spinning Disk confocal microscope (Cell Observed SD, Carl-Zeiss, Oberkochen, Germany) located in the Microscopia Óptica de Luz Gustavo de Oliveira Castro (Plamol) platform in Universidade Federal do Rio de Janeiro. To measure the mean fluorescence intensity (MFI), Zen Lite Blue (Carl-Zeiss, Oberkochen, Germany) software was used. On average, thirty cells per field were analyzed in fourteen fields by experiments. Then, the region of interest (ROI), specifically the nucleus and mitochondria, was tagged on the cells photographed for fluorescence analysis, which is given by the software from the intensity of the pixels. Subsequently, the statistical test was performed using GraphPad Prism version 7.4, and the values presented are averages with the corresponding standard deviations (SDs).
B16F10 cells were trypsinized and counted, and 1.5 × 10^4 cells/well in DMEM containing 0.1% (w/v) bovine serum albumin BSA were plated in a cell-view glass bottom culture dish with four compartments (Thermo Fisher Scientific Inc, Maryland, USA) and then incubated at 37 °C overnight to adhere. Post-treatment, the cells were treated with 3 or 50 µM Psd1 for 30 or 60 min and maintained at the same temperature. Cells treated with only water or 0.0001% H2O2 for 30 min were used as the negative and positive controls, respectively. Washes with saline were carried out between the additions of each probe followed by incubation at room temperature. The cells were incubated with 1 µL of SG, 1.5 µL of MitoTracker Red CMXRos, and 2 µL of DAPI for 10, 20, and 10 min, respectively. The fluorescent images were acquired by confocal microscopy.

[3] = target: T1, recombinant cyclin F-GST; assay: SPR; Biacore X, CM5 chip, 25 °C; cyclin F-GST immobilised by amine coupling (10 mM sodium acetate pH 4.0); Psd1 10-240 µM injected at 15 µL/min for 4 min in 10 mM HEPES, 150 mM NaCl, pH 7.4; Psd1-GST curves subtracted; global fit, 1:1 Langmuir model; settings: both partners purified
T1 chain: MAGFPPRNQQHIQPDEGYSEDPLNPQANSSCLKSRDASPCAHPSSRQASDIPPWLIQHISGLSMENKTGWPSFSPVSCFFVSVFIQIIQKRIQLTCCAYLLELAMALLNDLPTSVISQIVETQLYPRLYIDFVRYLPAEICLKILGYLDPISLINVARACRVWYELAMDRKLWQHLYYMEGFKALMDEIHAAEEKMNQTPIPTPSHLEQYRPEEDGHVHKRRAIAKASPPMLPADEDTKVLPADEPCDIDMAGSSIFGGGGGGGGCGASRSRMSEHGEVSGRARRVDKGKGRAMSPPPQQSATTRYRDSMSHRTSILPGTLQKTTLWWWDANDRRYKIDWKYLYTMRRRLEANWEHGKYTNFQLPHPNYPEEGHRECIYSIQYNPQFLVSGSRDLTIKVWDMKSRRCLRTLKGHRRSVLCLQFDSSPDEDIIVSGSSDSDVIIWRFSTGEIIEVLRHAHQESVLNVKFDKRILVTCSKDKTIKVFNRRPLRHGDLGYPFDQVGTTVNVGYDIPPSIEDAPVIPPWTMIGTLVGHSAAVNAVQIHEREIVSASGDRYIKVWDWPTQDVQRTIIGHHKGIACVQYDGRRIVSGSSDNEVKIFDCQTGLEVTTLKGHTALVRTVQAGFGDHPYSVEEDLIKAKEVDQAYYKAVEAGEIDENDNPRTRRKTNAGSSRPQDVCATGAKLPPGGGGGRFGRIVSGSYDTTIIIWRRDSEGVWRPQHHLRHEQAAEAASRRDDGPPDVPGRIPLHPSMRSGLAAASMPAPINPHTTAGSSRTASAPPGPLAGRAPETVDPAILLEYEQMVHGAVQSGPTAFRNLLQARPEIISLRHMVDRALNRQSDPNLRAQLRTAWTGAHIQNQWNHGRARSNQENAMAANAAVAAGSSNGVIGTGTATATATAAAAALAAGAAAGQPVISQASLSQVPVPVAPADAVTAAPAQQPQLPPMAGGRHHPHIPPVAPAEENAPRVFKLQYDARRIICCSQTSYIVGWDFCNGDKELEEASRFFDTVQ

Molecule: CCCCCCCCCCCCCCCC(=O)N[C@H](CN1CCOCC1)[C@H](O)c1ccccc1 (racemic) [PPMP, DL-threo-1-phenyl-2-palmitoylamino-3-morpholino-1-propanol]
- CT-B / Alexa Fluor 594 red signal (lipid raft; GlcCer) [1]: significant reduction in the bright red signal

Molecule: OO [hydrogen peroxide, reference compound]
- SYTOXGreen fluorescence, positive control [2]: green fluorescence signal increased significantly

- Kd [3]: 1500 µM
B1: Pisum sativum defensin 1 (peptide, UniProt P81929 1-46, looked up)
chain: KTCEHLADTYRGVCFTNASCDDHCKNKAHLISGTCHNWKCFCTQNC
notes: Pisum sativum defensin 1 (Psd1), 46-amino acid residue plant defensin from pea seeds; also called Psd1; pea defensin Psd1; source: expressed and purified as previously described [11], first step HiPrep 26/60 Sephacryl S-100 HR; the abstract says Psd1 can be expressed in Pichia pastoris
